Source: patent US6468509B2, “Sunscreen composition containing sol-gel microcapsules” (Sol-Gel Technologies Ltd., priority 1999, dated 2002)

Legend:
supercoiled plasmid DNA = conditions: positive controls at saturation concentrations; cited from earlier work
yeast strain, XD83 = test: Phototoxicity test based on survival of yeast under simulated sunlight; format: cell-based; conditions: simulated sunlight 13 mW/cm^2
Description: The phototoxicity tests are based on the survival of a yeast strain, XD83. A single colony of yeast is inoculated into growth medium, and harvested during the exponential growth. The cells are suspended at a known concentration in a phosphate buffer, to afford a uniform population of cells. The cells are illuminated with simulated sunlight (13 mW/cm^2) in the absence or presence of test compounds with continous stirring. Samples are taken at increasing times (0, 10, 20, 30 minutes of illumination). The samples are analyzed semi-quantitatively, by applying two dilutions of the sample as small droplets (10 μl) to the surface of nutrient agar plates, and incubated at 37° C. for 48 hours. Patches of growth are found around the droplet. It can be easily seen when growth has been decreased. Sunscreen samples are introduces as 1000 μM concentration of the major UVB sunscreen active ingredient.

Compound: CCCCC(CC)COC(=O)c1ccc(N(C)C)cc1 (stereo not drawn) [Padimate-O, 2-Ethylhexyl N,N-Dimethyl-p-aminobenzoate]
- strand breaks on DNA when illuminated in vitro (supercoiled plasmid DNA): inflict strand breaks on DNA
- phototoxic effect on the growth of the yeast cell (yeast strain, XD83; positive controls): strong phototoxic effect
- Phototoxicity (yeast strain, XD83; yeast XD83, 0-30 minutes illumination, 1000 μM of major UVB sunscreen active ingredient): Clearly toxic
